Measured values as given in patent publication US20040034879A1, “Mammalian sex selection using genetic modification” (priority 2000, published 2004).

Experiments:
[1] = system: sperm comprising an X chromosome; experiment: Sex of offspring sired by male mice carrying TP1-HSV tk (transgene (a)) on the X chromosome; type: in vivo, mouse; details: after two weeks of gancyclovir administration, crossed with non-transgenic female mice
Protocol: The mice transformed with transgene (a), as described above, express HSV tk on the X chromosome of maturing sperm. Gancyclovir. from about 5 to about 15 mg/kg body weight, is administered to transgenic mice expressing HSV tk via injection. Upon gancyclovir administration, HSV tk forms toxic metabolites that leads to the ablation of sperm comprising an X chromosome. The TP1 regulatory region is activated post-meiotically, so that Y bearing sperm are not effected. Thus, the transformed male mouse comprises exclusively Y bearing sperm and produces male offspring, upon gancyclovir administration. An exemplary gancyclovir administration regime comprises two weeks of administration prior to mating, thereby destroying X chromosome-bearing sperm prior to mating. Male mice carrying transgene HSV tk (transgene (a)) are crossed non-transgenic female mice. Without gancyclovir administration, half of the offspring are male and half are female. The female offspring carry the transgene on the X chromosome. After two weeks of gancyclovir administration, male mice carrying transgene (a) are crossed with non-transgenic female mice. The resulting offspring are all male.

[2] = system: Human 293 cells; experiment: Luciferase activity after transient co-transfection with pCMV-Luc; type: cell-based; details: 48 hours after co-transfection with pBS-CMV-tTA-Barnase-Barstar and pCMV-Luc; tetracycline pretreatment, 2 μg/ml
Protocol: Cell culture and transient transfection: Human 293 cells from embryonal kidney were maintained at 37° C., 5% CO2 in α-MEM supplemented with 10% fetal bovine serum. Transfections by calcium phosphate co-precipitation were performed according to standard protocols. Transfections were carried out in 35 mm dishes, using 1 μg of plasmid together with 0.5 μg of pCMV-Luc or pCMV-GFP. Control trasfections contained 1 μg of empty pTRE plasmid DNA together with 0.5 μg of either pCMV-Luc or pCMV-GFP. Tetracycline was used at a concentration of 2 μg/ml, and added shortly after cells were transfected, unless otherwise indicated. All data were from three replicate plates and the experiments were repeated twice.
Luciferase activity: Twenty-four hours following transfection, media was removed, cells were washed with PBS and luciferase assays were performed as described in Yin et al (1996) with Promega luciferase assay system, using 10 μl lysate and 50 μl luciferase substrate. Activity was measured with a Turner TD-20e luminometer. Protein concentrations in different lysates were determined by Bradford assays (Bio-Rad), and luciferase activity per μg protein determined.

SMILES | sex of the resulting offspring [1] | luciferase activity in cells treated with tetracycline versus those not treated [2] [fold]
Nc1nc(O)c2ncn(COC(CO)CO)c2n1 [gancyclovir] | all male | –
CN(C)[C@@H]1C(O)=C(C(N)=O)C(=O)[C@@]2(O)C(O)=C3C(=O)c4c(O)cccc4[C@@](C)(O)[C@H]3C[C@@H]12 [tetracycline] | – | ~6
